Data set [1] has as its system A. baumannii. In kind it is cell-based. In short, it runs like this: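 Laboratory strains and 50 clinical isolates of A. baumannii were tested by CLSI broth microdilution, with serially diluted peptide (0.1-64 μg) and about 1×10^5 C.F.U. per well, incubated aerobically overnight at 35±2° C. MIC was read visually. MBC came from subculturing clear wells, as ≥99.9% inoculum reduction.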

Data set [2] concerns human RBC. Briefly: Hemolysis of RBC. The class given is cell-based. The procedure: Varying amounts of peptide were incubated with the washed RBC for one hour at room temperature. Intact cells were pelleted by gentle centrifugation, and hemolysis of each sample was determined by absorption measurement at 450 nm. A positive control sample consisted of RBC lysed by the addition of 0.1% Triton, for which hemolysis was also determined by absorption measurement at 450 nm. Percentages of lysed RBC incubated with peptide were then calculated by the ratio of absorbances at 450 nm for the sample relative to the absorbance at 450 nm of the positive control sample. The MHC10 value was calculated as the minimum peptide concentration to induce 10% cell lysis.

Data set [3] deals with Jurkat cells. The experiment in a line: Cytotoxicity against Jurkat cells (CellTiter Blue). In kind it is cell-based, human. As for the experimental part: (§1) The cytotoxicities of selected peptides against human T-lymphocytes, in particular Jurkat cells, was determined by growing 100 uL Jurkat cells in RPMI (approx. 5×10^5 cells/ml density) overnight at 37° C. under 5% CO2 atmosphere, in microtiter plate wells, in the presence and absence of peptides. Control reactions either lacked peptide (negative cytotoxicity control), or contained a buffer to completely lyse Jurkat cells (positive cytotoxicity control). The viabilities of cells were then determined by addition of 20 uL CellTiter Blue dye (Promega) to each well, and incubation of cells for a further 3 hrs at 37° C. Fluorescence values were measured for 1 sec at 540 nm/615 nm, and expressed relative to fluorescence values for negative and positive cytotoxicity control samples. Comparison with a fully lysed control allowed the calculation of a percentage killing for each peptide concentration. The MCC10 value was calculated as the minimum peptide concentration required to induce 10% cytotoxicity.
On the technique in general: Alamar Blue is a resazurin reagent that responds to reducing activity.

Data set [4] is described as follows: Cytotoxicity against Jurkat cells (CellTiter Blue). In kind it is cell-based, human. The conditions noted are these: human. The procedure: as §1
For data set [5], the system named is S. typhimurium strain AroA. In kind it is cell-based. The procedure: Synthetic peptides were tested for their ability to inhibit bacterial growth in liquid culture. […] 19606, Acinetobacter spp. ATCC 17903, Acinetobacter spp. ATCC 19004, Escherichia coli strain BL21, S. aureus, S. typhimurium strain AroA, P. aeruginosa or P. pneumotropica. After 5-6 hours of shaking at 37° C., growth was measured as absorbance at 595 nm. As a control, cultures were grown in the presence of 0.1% acetonitrile (i.e., the concentration present in 10 μM peptide).

Data set [6] has as its system A. baumannii ATCC 19606, Acinetobacter spp. ATCC 17903, Acinetobacter spp. ATCC 19004, E. coli BL21, S. aureus, S. typhimurium AroA, P. aeruginosa, P. …. Briefly: Antibacterial spectrum over the serial dilution panel (Table 6). The class given is cell-based. The conditions noted are these: summary of Table 6. Put shortly: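 Peptides at about 5–10 μM were added to liquid media freshly inoculated with each bacterial strain and shaken 5-6 h at 37° C. Growth read as absorbance at 595 nm; control cultures contained 0.1% acetonitrile.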

Where two headings read alike, the source gives them in different places. Peptide text beside a SMILES is read from it. * marks the point of attachment. Biotin = O=C1N[C@H]2[C@H](CS[C@H]2CCCCC(=O)*)N1

As for `CC(C)C[C@H](NC(=O)[C@H](CC(=O)O)NC(=O)[C@H](CO)NC(=O)CCCC[C@@H]1SC[C@@H]2NC(=O)N[C@@H]21)C(=O)NCC(=O)N[C@@H](CCCCN)C(=O)N[C@@H](CO)C(=O)NCC(=O)N[C@@H](C)C(=O)NCC(=O)N[C@@H](Cc1c[nH]c2ccccc12)C(=O)N[C@@H](CCCNC(=N)N)C(=O)N[C@@H](Cc1c[nH]c2ccccc12)C(=O)N[C@@H](CCCNC(=N)N)C(=O)N[C@@H](C)C(=O)N[C@@H](CS)C(=O)N[C@@H](CC(N)=O)C(=O)N[C@H](C(=O)N[C@@H](CC(C)C)C(=O)N[C@@H](CO)C(=O)N[C@@H](CCCCN)C(=O)N[C@@H](CS)C(=O)N[C@@H](CCCNC(=N)N)C(=O)NCC(=O)O)[C@@H](C)O` [Ac378] (Biotin-SDLGKSGAGWRWRACNTLSKCRG-OH; N-terminus and C-terminus assumed), the “MIC (μM) for non-amidated Peptide” value in data set [1] was 12.5 µM. Moreover, the MHC10 in data set [2] worked out at 50 µM. Moreover, the MCC10 in data set [3] came to 30 µM. For the same compound, in data set [4], the cytotoxicity at 12.5 μM came out at 0%, the cytotoxicity at 25 μM was determined as 0% and the cytotoxicity at 50 μM is 35%.
With `CC(C)C[C@H](NC(=O)[C@H](Cc1ccccc1)NC(=O)CNC(=O)[C@H](CO)NC(=O)[C@@H]1CCCN1C(=O)[C@H](Cc1c[nH]c2ccccc12)NC(=O)[C@@H](NC(=O)[C@@H]1CCCN1C(=O)[C@H](CCCNC(=N)N)NC(=O)[C@@H](NC(=O)[C@H](C)NC(=O)[C@H](CS)NC(=O)[C@H](CCCNC(=N)N)NC(=O)[C@H](CO)NC(=O)[C@H](CO)NC(=O)[C@H](C)NC(=O)[C@H](C)NC(=O)[C@H](CCCNC(=N)N)NC(=O)[C@H](CO)NC(=O)[C@H](CO)NC(=O)[C@H](Cc1c[nH]cn1)NC(=O)[C@@H]1CCCN1C(=O)CCCC[C@@H]1SC[C@@H]2NC(=O)N[C@@H]21)C(C)C)C(C)C)C(=O)N[C@@H](CCCNC(=N)N)C(=O)O` [Ac327] (Biotin-PHSSRAASSRCAVRPVWPSGFLR-OH), the “MIC (μM) for non-amidated Peptide” value in data set [1] amounted to 20 µM. In data set [2], this compound displayed an MHC10 of 30 µM. In data set [3], this compound registered an MCC10 of 8 µM. In data set [4], this compound had a cytotoxicity at 12.5 μM of 20%, a cytotoxicity at 25 μM of 31% and a cytotoxicity at 50 μM of 1%.
On to `CC(C)C[C@H](NC(=O)[C@H](CCC(N)=O)NC(=O)[C@H](CCCNC(=N)N)NC(=O)[C@H](Cc1ccccc1)NC(=O)[C@H](Cc1ccc(O)cc1)NC(=O)[C@H](CC(C)C)NC(=O)[C@H](Cc1c[nH]c2ccccc12)NC(=O)[C@H](Cc1ccccc1)NC(=O)[C@H](CCCNC(=N)N)NC(=O)[C@H](CCCNC(=N)N)NC(=O)[C@H](CO)NC(=O)[C@H](CC(=O)O)NC(=O)[C@H](CC(C)C)NC(=O)[C@H](Cc1c[nH]c2ccccc12)NC(=O)[C@H](Cc1ccccc1)NC(=O)[C@H](CC(=O)O)NC(=O)[C@H](CCCNC(=N)N)NC(=O)[C@H](CCCNC(=N)N)NC(=O)[C@H](C)NC(=O)[C@H](CCC(N)=O)NC(=O)[C@H](CO)NC(=O)[C@H](CCCNC(=N)N)NC(=O)CCCC[C@@H]1SC[C@@H]2NC(=O)N[C@@H]21)C(=O)N[C@@H](Cc1ccccc1)C(=O)O` [Ac474] (Biotin-RSQARRDFWLDSRRFWLYFRQLF-OH), for which, in data set [1], the “MIC (μM) for non-amidated Peptide” value came out at 25 µM. In data set [2], this compound gave an MHC10 of 5 µM. This compound also yielded an MCC10 in data set [3] of 10 µM. In data set [4], this compound came in with a cytotoxicity at 12.5 μM of 13%, a cytotoxicity at 25 μM of 20% and a cytotoxicity at 50 μM of 81%.
As for `CC(C)C[C@H](NC(=O)[C@H](CC(N)=O)NC(=O)[C@H](CCCCN)NC(=O)[C@@H]1CCCN1C(=O)[C@H](CC(C)C)NC(=O)[C@H](CS)NC(=O)[C@H](Cc1ccccc1)NC(=O)[C@H](Cc1ccccc1)NC(=O)CNC(=O)[C@@H](NC(=O)[C@H](CCCNC(=N)N)NC(=O)CCCC[C@@H]1SC[C@@H]2NC(=O)N[C@@H]21)[C@@H](C)O)C(=O)N[C@@H](CCCCN)C(=O)N[C@@H](CCCNC(=N)N)C(=O)N[C@@H](CO)C(=O)N[C@@H](CCCCN)C(=O)N[C@@H](Cc1ccccc1)C(=O)N[C@@H](CS)C(=O)N[C@@H](C)C(=O)N[C@@H](Cc1ccccc1)C(=O)N[C@@H](CC(C)C)C(=O)N[C@@H](CC(=O)O)C(=O)N1CCC[C@H]1C(=O)N[C@H](C(=O)O)[C@@H](C)O` [Ac323] (Biotin-RTGFFCLPKNLKRSKFCAFLDPT-OH; N-terminus and C-terminus assumed), the “MIC (μM) for non-amidated Peptide” value in data set [1] stood at 20 µM. This compound also registered an MHC10 in data set [2] of 30 µM. In data set [3], this compound displayed an MCC10 of 13 µM. In data set [4], this compound returned a cytotoxicity at 12.5 μM of 9%, a cytotoxicity at 25 μM of 31% and a cytotoxicity at 50 μM of 49%.
As for `CC(C)C[C@H](NC(=O)[C@@H](NC(=O)[C@H](CCC(=O)O)NC(=O)[C@@H](NC(=O)[C@H](CCCNC(=N)N)NC(=O)CNC(=O)[C@@H](N)CCC(N)=O)C(C)C)C(C)C)C(=O)N[C@@H](Cc1ccc(O)cc1)C(=O)N[C@@H](CCCNC(=N)N)C(=O)NCC(=O)N[C@@H](CO)C(=O)N[C@@H](Cc1c[nH]c2ccccc12)C(=O)NCC(=O)N[C@H](C(=O)N[C@H](C(=O)N[C@@H](CS)C(=O)O)C(C)C)[C@@H](C)O` [Ac175, reference compound] (H-QGRVEVLYRGSWGTVC-OH; N-terminus and C-terminus assumed), the “% inhibition of bacterial growth by peptide” value (shortened to “% inhibition”) stood at 3% in data set [5] (5 μM peptide), 0% in data set [5] (10 μM peptide), 0% in data set [5] (15 μM peptide) and 4% in data set [5] (20 μM peptide). Moreover, the “selectively inhibited growth of S. aureus” value in data set [6] is “selectively inhibited growth”.
Turning to `C[C@@H](O)[C@H](NC(=O)[C@H](CS)NC(=O)[C@H](CO)NC(=O)[C@@H](N)Cc1c[nH]cn1)C(=O)N[C@H](C(=O)N1CCC[C@H]1C(=O)N[C@@H](CC(N)=O)C(=O)N[C@H](C(=O)N1CCC[C@H]1C(=O)N[C@@H](CCC(N)=O)C(=O)N[C@@H](CCC(N)=O)C(=O)N1CCC[C@H]1C(=O)N[C@@H](Cc1c[nH]cn1)C(=O)N1CCC[C@H]1C(=O)N[C@@H](Cc1c[nH]cn1)C(=O)N[C@@H](Cc1c[nH]cn1)C(=O)N[C@@H](CCCNC(=N)N)C(=O)N[C@@H](Cc1c[nH]cn1)C(=O)N[C@@H](CCCNC(=N)N)C(=O)N[C@@H](CCCNC(=N)N)C(=O)N[C@@H](Cc1c[nH]cn1)C(=O)N[C@@H](CCCNC(=N)N)C(=O)N[C@@H](Cc1c[nH]cn1)C(=O)O)[C@@H](C)O)[C@@H](C)O` [Ac46] (H-HSCTTPNTPQQPHPHHRHRRHRH-OH; N-terminus and C-terminus assumed), the “% inhibition” value amounted to 3% in data set [5] (5 μM peptide), 16% in data set [5] (10 μM peptide), 18% in data set [5] (15 μM peptide) and 36% in data set [5] (20 μM peptide). Moreover, the “selectively inhibited growth of Acinetobacter spp. ATCC 19004, and S. aureus” value in data set [6] is given as “selectively inhibited growth”.
With `C[C@H](NC(=O)[C@H](CO)NC(=O)[C@H](CCCNC(=N)N)NC(=O)CNC(=O)[C@H](CCCNC(=N)N)NC(=O)CNC(=O)[C@H](CO)NC(=O)[C@H](CO)NC(=O)[C@H](CCCNC(=N)N)NC(=O)CNC(=O)[C@@H]1CCCN1C(=O)[C@@H]1CCCN1C(=O)[C@H](CO)NC(=O)[C@H](CCCNC(=N)N)NC(=O)[C@@H]1CCCN1C(=O)[C@H](CO)NC(=O)[C@@H]1CCCN1C(=O)[C@@H](NC(=O)[C@H](CCCNC(=N)N)NC(=O)CNC(=O)[C@@H](N)Cc1c[nH]c2ccccc12)[C@@H](C)O)C(=O)N[C@@H](CO)C(=O)N[C@@H](CS)C(=O)O` [Ac66] (H-WGRTPSPRSPPGRSSGRGRSASC-OH; N-terminus and C-terminus assumed), the “% inhibition” value in data set [5] (12.5 μM peptide), in data set [5] (15 μM peptide), in data set [5] (17.5 μM peptide) and in data set [5] (20 μM peptide) was 0% throughout. The “selectively inhibited growth of Acinetobacter spp. ATCC 19004, and S. aureus” value in data set [6] is listed as “selectively inhibited growth”.
